The source of these data is publication PMC11612460, “Development of a novel gut microphysiological system that facilitates assessment of drug absorption kinetics in gut” (Scientific Reports, 2024).

Data set [1] in a line: in vitro. The note with it: human. How it is done:
(§1) The seeding medium and culture medium of hiSIECs for LLI and ALI were obtained from FUJIFILM Corporation. hiSIECs were cultured according to the manufacturer’s instructions. Briefly, Fluid3D-X® devices were coated with Corning Matrigel GFR Basement Membrane Matrix (Corning) on the day before seeding the cells. hiSIECs were seeded onto a Fluid3D-X® device at 5.3 × 10^5 cells/MPS and incubated for 5.5 h. The seeding medium was added to the device, and cell culture was started in flow for 11 days at 20 pps 1/4 (3.8 µL/min). After one day, the seeding medium was replaced with LLI culture medium, and the medium was changed every two or three days. ALI culture was performed using the same method as the LLI culture, but the apical channel medium was removed to expose the cells to air on day 4. On day 11 after seeding, the gut MPS was used for the assay.
(§2) Eight gut chips were divided into two groups: with and without inhibitors. […] Because all steps were performed under static conditions, 200 µL of buffer was transferred from the outlet to the inlet by a micropipette before collection of each sample. Serial sampling (150 µL) was performed at following time points (0, 30, 60, 90, and 120 min) from both the donor and acceptor sides. Equal volumes of fresh buffer were added after the sample collection. At the end of the experiment (120 min), the cell lysates were collected. The concentrations of drugs and/or metabolites in the transport buffer and cells were measured by LC-MS/MS. To observe the inhibitory effects of the inhibitor on compound transport, transport experiments were performed in the presence of an inhibitor cocktail containing ketoconazole (10 µM), PSC833 (5 µM), and Ko143 (5 µM) to inhibit CYP3A4, P-gp, and BCRP.
(§3) The permeability, efflux ratio, and Fg parameters were derived as follows:
(§4) The apparent permeability coefficient (Papp, cm/s) was calculated using Eq. (1):1 [drawing 1]
(§5) where dQ/dt, MPS surface area, and C0 represent the amount of the test compound transported to the receiver compartment per unit time when the linearity of its time-dependent transport was
(§6) apparently maintained, the culture area of the gut MPS/Fluid3D-X (0.64 cm^2), and the
(§7) initial concentration of the test compound in the donor compartment.2 [drawing 2]
(§8) where Papp, basal to apical and Papp, apical to basal represent the apparent permeability coefficient in the
(§9) basolateral-to-apical and apical-to-basolateral directions, respectively.
(§10) The intestinal availability (Fg) of CYP3A substrates was calculated based on a previous report[35] using the following equation:3 [drawing 3]
(§11) where CLapical to basal (+ inhibitor) and CLapical to basal (-inhibitor) represent the transcellular transport clearance in the apical-to-basolateral direction in the presence or absence of the inhibitor, respectively.
(§12) The specimens were deproteinated with 3-times volumes of acetonitrile and centrifuged to obtain supernatants. For quantification of the drug concentration on the donor side, the specimens were further diluted 20 times with acetonitrile. Two microliters of each sample was subjected to LC–MS/MS analysis. An AB SCIEX QTRAP 5500 + mass spectrometer (Applied Biosystems, Foster City, CA) equipped with a Nexera X2 LC system (Shimadzu, Kyoto, Japan), operated in electron spray ionization mode, was used for the analysis. Chromatographic separation was performed at 40 °C on a GL Sciences Inc instrument. InertSustain C18 HP analytical column (2.1 I.D. × 100 mm, 3 μm) at a flow rate of 0.5 ml/min using the gradient method. The mobile phase consisted of 2 mmol/L ammonium acetate and 0.1% formic acid in water (mobile phase A) and 0.1% formic acid in acetonitrile (mobile phase B). […] The ion spray voltage and temperature were set at 4500 V and 600 °C, respectively.

Data set [2] relates to hiSIECs monolayers in gut MPS/Emulate. Kind of data set: Permeability / donor concentration of test drugs using gut MPS/Emulate (fluidic conditions).
Procedure: F-hiSIEC was thawed and suspended in seeding medium according to the manufacture’s protocol. The suspension of F-hiSIEC (6.0×10^6 cells/mL, 35-40 μL/chip) was transferred to the chip and incubated at 37 °C overnight. The cells were then cultured in maintenance medium under perfusion culture conditions at a flow rate of 15 μL/hr from day1 to day 4 and 30 μL/h from day 5 to day9. Gravity wash and prime cycle were performed when necessary. Additionally, the membrane strain rate was set to 2% at a frequency of 0.15 Hz from day 3 to day 5 and to 10% from day 6 to day 9. The permeability of the test drugs was assessed on day 9.
The test drugs were added to the culture medium. The top and bottom channels of the chip were perfused with the media at a flow rate of 30 μL/h. […] Inhibitors (10μM Ketoconazole, 5μM PSC833 and 5μM Ko143) were added as a cocktail to both the channels. Media were collected from the outlet chamber at 6, 24, 30, and 48 h.
The subject of data set [3] is hiSIECs monolayers in gut MPS/Fluid3D-X. Kind of data set: in vitro. The conditions noted are these: for effect of inhibitor cocktail on apical-to-basal transport: ketoconazole 10 µM. The method, then:
as §1, §2, §3, §4, §5, §6, §7, §8, §9, §10, §11, §12

The conditions of data set [4]: in vivo, human; cited from earlier work.
Data set [5] relates to hiSIECs. The conditions noted are these: ref 20 (Shirai et al.); cited from earlier work.
[6] abbreviates: Papp, apical to basal, inhibitor (+).
[7] abbreviates: Papp, apical to basal, inhibitor (-).
Setting [8] is: Papp, basal to apical, inhibitor (-), no inhibitor, mean ± SD, n = 4, deuterium-labeled compound dosed to basal side, apical pH 6.5, basal pH 7.4.
[9] abbreviates: with ketoconazole 10 µM, PSC833 5 µM, Ko143 5 µM (both sides).

For `C=C[C@H]1C[N@@]2CC[C@H]1C[C@@H]2[C@@H](O)c1ccnc2ccc(OC)cc12` [Quinidine], the efflux ratio at 120 min in data set [1] is 2.02 ± 0.37; in data set [1] (setting [9]) it was 1.12 ± 0.63. For the same molecule, the Papp at 120 min was found to be 3.88 ± 1.12 ×10⁻⁶ cm/s in data set [1] (setting [6]), 2.15 ± 0.33 ×10⁻⁶ cm/s in data set [1] (setting [7]), 4.37 ± 0.15 ×10⁻⁶ cm/s in data set [1] (setting [8]) and 4.37 ± 1.53 ×10⁻⁶ cm/s in data set [1] (setting [9]). The “effluent concentration as percent of the corresponding inlet concentrations” value in data set [2] (at 24 h) was 82%. In addition, the “reduction of concentration in the effluent relative to original drug solution” value in data set [2] (within the first 6 h) stood at 29%.
For `Cc1cc(=O)n(-c2ccccc2)n1C` [Antipyrine], the efflux ratio at 120 min in data set [1] (Efflux ratio (ER), inhibitor (+)) is 0.78 ± 0.076; in data set [1] (Efflux ratio (ER), inhibitor (-)), 0.656 ± 0.12. Further, the Papp at 120 min in data set [1] (setting [6]) came to 18.5 ± 1.2 ×10⁻⁶ cm/s; in data set [1] (setting [7]) it was 20.1 ± 2.7 ×10⁻⁶ cm/s; in data set [1] (Papp, basal to apical, inhibitor (+)) it was 14.4 ± 0.7 ×10⁻⁶ cm/s; in data set [1] (Papp, basal to apical, inhibitor (-)), 13.2 ± 1.1 ×10⁻⁶ cm/s. In data set [3] (PSC833 5 µM, Ko143 5 µM), the “effect of inhibitor cocktail on apical-to-basal transport” value is reported as “not affected by the inhibitors”.
On to `O=C(O)c1cc(/N=N/c2ccc(S(=O)(=O)Nc3ccccn3)cc2)ccc1O` [Sulfasalazine], for which the efflux ratio at 120 min came out at 12.7 ± 2.3 in data set [1] and 1.97 ± 0.76 in data set [1] (setting [9]). For the same molecule, the Papp at 120 min in data set [1] (setting [6]) was 0.557 ± 0.095 ×10⁻⁶ cm/s; in data set [1] (setting [7]) it was 0.505 ± 0.072 ×10⁻⁶ cm/s; in data set [1] (setting [8]), 6.44 ± 0.45 ×10⁻⁶ cm/s; in data set [1] (setting [9]), 1.1 ± 0.29 ×10⁻⁶ cm/s. The “decrease in intrinsic clearance (directional transport) in the presence of transporter inhibitors” value in data set [3] (inhibitor cocktail ketoconazole 10 µM, PSC833 5 µM, Ko143 5 µM) is 85%.
Turning to `OCc1ncc2n1-c1ccc(Cl)cc1C(c1ccccc1F)=NC2` [1-hydroxymidazolam], the “secretion of metabolite to apical versus basal channel side” value in data set [3] (midazolam dosed apical) is listed as “preferentially secreted to the apical channel side”. For the same molecule, the “formation of metabolite 1-hydroxymidazolam from midazolam in presence of inhibitors” value in data set [3] (midazolam dosed apical, inhibitor cocktail) is on record as “decreased formation”.
Turning to `Cc1ncc2n1-c1ccc(Cl)cc1C(c1ccccc1F)=NC2` [Midazolam], in data set [4], the “Fg, clinical value” is 0.55. Moreover, the Papp at 120 min in data set [1] (Papp, apical to basal, inhibitor (+), inhibitor cocktail ketoconazole 10 µM, PSC833 5 µM, Ko143 5 µM, mean ± SD, n = 3) was found to be 14.4 ± 1.9 ×10⁻⁶ cm/s; in data set [1] (Papp, apical to basal, inhibitor (-), no inhibitor, mean ± SD, n = 4, apical pH 6.5, basal pH 7.4) it was 11.2 ± 0.6 ×10⁻⁶ cm/s. The “fraction that escaped from the gut metabolism (Fg)” value in data set [3] (from ratio of apical-to-basal transport clearance with and without inhibitor) worked out at 0.64. For the same molecule, in data set [3] (PSC833 5 µM, Ko143 5 µM), the “effect of inhibitor cocktail on apical-to-basal transport” value is on record as “increased with the addition of inhibitors”. For the same molecule, the “donor concentration relative to spiked concentration” value in data set [2] (presumably adsorption to the device) is given as “almost half of the spiked concentration”. For the same molecule, the “Fg reported by Shirai et al.” value in data set [5] was 0.74.
